Test results: ChEMBL document CHEMBL1155109, “Discovery of 4-amino and 4-hydroxy-1-aroylindoles as potent tubulin polymerization inhibitors” (J Med Chem, 2008)

Legend:
[1] = Displacement of [3H]colchicine from microtubule associated protein rich tubulin at 1 uM
NCI-H460 = assay: Growth inhibition of human H460 cells after 72 hrs by methylene blue dye assay; format: functional, cell-based; settings: NCI-H460, 72 h
[2] = Growth inhibition of P-gp 170/MDR overexpressing human KB-vin10 cells after 72 hrs by methylene blue dye assay; format: functional; settings: KB-VIN10, 72 h
[3] = Displacement of [3H]colchicine from microtubule associated protein rich tubulin at 5 uM
MKN-45 = assay: Growth inhibition of human MKN45 cells after 72 hrs by methylene blue dye assay; format: functional, cell-based; settings: MKN-45, 72 h
[4] = Inhibition of microtubule associated protein rich tubulin polymerization
KB = assay: Growth inhibition of human KB cells after 72 hrs by methylene blue dye assay; format: functional, cell-based

SMILES	inhibition [1] [%]	IC50 (NCI-H460) [nM]	IC50 [2] [nM]	inhibition [3] [%]	IC50 (MKN-45) [nM]	IC50 [4] [nM]	IC50 (KB) [nM]
COc1cc(C(=O)n2c(C)cc3cc(N(C)C)ccc32)cc(OC)c1OC	72	52	38	89	41	1500	42
COc1ccc2c(c1)c(CN(C)C)cn2C(=O)c1cc(OC)c(OC)c(OC)c1	–	> 5000	> 5000	–	> 5000	–	> 5000
COc1cc(C(=O)n2ccc3cc(CN(C)C)ccc32)cc(OC)c1OC	–	> 5000	> 5000	–	> 5000	–	> 5000
COc1cc(C(=O)n2c(C)cc3cc(N)ccc32)cc(OC)c1OC	–	334	312	–	156	–	345
COc1cc2c(c(OC)c1OC)-c1ccc(OC)c(=O)cc1[C@@H](NC(C)=O)CC2 [COLCHICINE]	–	–	125	–	11	3000	11.4
COc1cc(C(=O)n2ccc3cc(C)ccc32)cc(OC)c1OC	–	353	400	–	314	–	371
CCOC(=O)c1c(C)n(C(=O)c2cc(OC)c(OC)c(OC)c2)c2ccc(OC)cc12	–	> 5000	> 5000	–	> 5000	–	> 5000
COc1cc(C(=O)n2ccc3cc4c(cc32)OCO4)cc(OC)c1OC	–	559	587	–	521	–	575
COc1cc(C(=O)n2ccc3c(N)c(OC)ccc32)cc(OC)c1OC	71	5.4	2.4	93	3.1	900	1.2
COC(=O)c1ccc2c(ccn2C(=O)c2cc(OC)c(OC)c(OC)c2)c1	–	> 5000	5000	–	> 5000	–	> 5000
CCOC(=O)c1cc2cc(OC)ccc2n1C(=O)c1cc(OC)c(OC)c(OC)c1	–	198	185	–	101	–	230
COc1ccc2c(c1)CC(C)N2C(=O)c1cc(OC)c(OC)c(OC)c1 (configuration not stated)	–	413	372	–	257	–	370
COc1cc(C(=O)n2ccc3cc(C=O)ccc32)cc(OC)c1OC	–	> 5000	> 5000	–	> 5000	–	> 5000
COc1ccc2c(c1)cc(CO)n2C(=O)c1cc(OC)c(OC)c(OC)c1	–	> 5000	> 5000	–	> 5000	–	> 5000
COc1cc(C(=O)n2c(C)cc3c(O)c(OC)ccc32)cc(OC)c1OC	94	0.5	0.3	97	0.6	600	0.3
COc1cc(C(=O)n2ccc3cc(CO)ccc32)cc(OC)c1OC	–	> 5000	> 5000	–	> 5000	–	> 5000
COc1cc(C(=O)n2ccc3c([N+](=O)[O-])c(OC)ccc32)cc(OC)c1OC	–	> 5000	> 5000	–	> 5000	–	> 5000
COc1ccc2c(c1)cc(C(C#N)N(C)C)n2C(=O)c1cc(OC)c(OC)c(OC)c1 (configuration not stated)	–	> 5000	> 5000	–	> 5000	–	> 5000
COc1ccc2c(c1)CCN2C(=O)c1cc(OC)c(OC)c(OC)c1	27	98	84	55	53	2600	89
COc1ccc(NC(=O)c2cc(OC)c(OC)c(OC)c2)cc1	–	> 5000	> 5000	–	> 5000	–	> 5000
COc1ccc(/C=C\c2cc(OC)c(OC)c(OC)c2)cc1O [COMBRETASTATIN A4]	85	2.8	–	93	5.6	–	2.2
COc1ccc2c(c1)CCCN2C(=O)c1cc(OC)c(OC)c(OC)c1	–	652	586	–	395	> 5000	596
